Test results reported in ChEMBL document CHEMBL1201862, “PubChem BioAssay data set” (2004).
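Compound exposure: 48 hours, 5 concentrations, 96-well plates. GI50 = concentration required for 50% inhibition of growth.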 Active and inactive are the calls of the source. Rule as the data show it: active = GI50 up to about 1.1 µM and inactive = higher.

Key:
Assay in all cases: NCI-60 cell line screen, 48 h
U-251 = test system: U-251
SN12C = test system: SN12C
RPMI-8226 = test system: RPMI-8226
EKVX = test system: EKVX
UO-31 = test system: UO-31
SK-MEL-28 = test system: SK-MEL-28
M14 = test system: M14
UACC-257 = test system: UACC-257
NCI-H226 = test system: NCI-H226
SK-OV-3 = test system: SK-OV-3
A549 = test system: A549
SK-MEL-2 = test system: SK-MEL-2
HOP-62 = test system: HOP-62
SK-MEL-5 = test system: SK-MEL-5
TK-10 = test system: TK-10
HOP-92 = test system: HOP-92

Compound | GI50 (U-251) | GI50 (SN12C) | GI50 (RPMI-8226) | GI50 (EKVX) | GI50 (UO-31) | GI50 (SK-MEL-28) | GI50 (M14) | GI50 (UACC-257) | GI50 (NCI-H226) | GI50 (SK-OV-3) | GI50 (A549) | GI50 (SK-MEL-2) | GI50 (HOP-62) | GI50 (SK-MEL-5) | GI50 (TK-10) | GI50 (HOP-92)
N#CCCN(c1ccc(C=O)cc1)S(=O)(=O)c1ccccc1 | > 100 µM (inactive) | > 100 µM (inactive) | > 100 µM (inactive) | > 100 µM (inactive) | > 100 µM (inactive) | > 100 µM (inactive) | > 100 µM (inactive) | > 100 µM (inactive) | > 100 µM (inactive) | > 100 µM (inactive) | > 100 µM (inactive) | > 100 µM (inactive) | > 100 µM (inactive) | > 100 µM (inactive) | – | –
Cn1c(=O)nc2n(-c3ccc(Cl)cc3)c3ccc(Cl)cc3nc-2c1=O | 1.98 µM (inactive) | 13.1 µM (inactive) | – | 12.9 µM (inactive) | 18 µM (inactive) | 9.23 µM (inactive) | 9.06 µM (inactive) | 3.4 µM (inactive) | 11.5 µM (inactive) | 88.7 µM (inactive) | 5.75 µM (inactive) | 4.36 µM (inactive) | 18 µM (inactive) | 1.04 µM (active) | 18.2 µM (inactive) | 7.05 µM (inactive)
CCN(CC)CCn1c2c3ccccc3ccc2c2oc(=O)c3ccccc3c21 | 57 µM (inactive) | – | > 100 µM (inactive) | > 100 µM (inactive) | > 100 µM (inactive) | > 100 µM (inactive) | 45.5 µM (inactive) | > 100 µM (inactive) | – | > 100 µM (inactive) | > 100 µM (inactive) | > 100 µM (inactive) | 18.3 µM (inactive) | – | > 100 µM (inactive) | 83.6 µM (inactive)
Cc1ccnc(NS(=O)(=O)c2ccc(NC3=CC(=O)C(=O)c4ccccc43)cc2)n1 | > 100 µM (inactive) | > 100 µM (inactive) | – | > 100 µM (inactive) | > 100 µM (inactive) | > 100 µM (inactive) | > 100 µM (inactive) | > 100 µM (inactive) | > 100 µM (inactive) | > 100 µM (inactive) | > 100 µM (inactive) | > 100 µM (inactive) | > 100 µM (inactive) | > 100 µM (inactive) | > 100 µM (inactive) | –
CCOC(=O)C(C(=O)c1ccccc1)=C1NCCN1 | > 100 µM (inactive) | > 100 µM (inactive) | > 100 µM (inactive) | > 100 µM (inactive) | > 100 µM (inactive) | > 100 µM (inactive) | > 100 µM (inactive) | > 100 µM (inactive) | > 100 µM (inactive) | – | > 100 µM (inactive) | > 100 µM (inactive) | > 100 µM (inactive) | > 100 µM (inactive) | – | –
O=C(N/N=C/c1cccc(O)c1O)N/N=C/c1cccc(O)c1O | 12.3 µM (inactive) | 21.8 µM (inactive) | 19.8 µM (inactive) | 20.5 µM (inactive) | 6.52 µM (inactive) | 20.1 µM (inactive) | 14 µM (inactive) | 19.9 µM (inactive) | 23.4 µM (inactive) | > 100 µM (inactive) | 35.9 µM (inactive) | 24 µM (inactive) | – | – | 29.4 µM (inactive) | 17.4 µM (inactive)
O=c1cc(-c2ccccc2)c2cc3c(=O)ccoc3cc2o1 | > 100 µM (inactive) | > 100 µM (inactive) | > 100 µM (inactive) | > 100 µM (inactive) | > 100 µM (inactive) | > 100 µM (inactive) | > 100 µM (inactive) | > 100 µM (inactive) | 79.1 µM (inactive) | – | > 100 µM (inactive) | > 100 µM (inactive) | 80.4 µM (inactive) | 43.7 µM (inactive) | 44.4 µM (inactive) | –
COc1cc(-c2ccc(NC(=O)SCCC(=O)O)cc2OC)ccc1NC(=O)SCCC(=O)O | > 100 µM (inactive) | > 100 µM (inactive) | > 100 µM (inactive) | > 100 µM (inactive) | > 100 µM (inactive) | > 100 µM (inactive) | > 100 µM (inactive) | > 100 µM (inactive) | > 100 µM (inactive) | – | > 100 µM (inactive) | > 100 µM (inactive) | > 100 µM (inactive) | > 100 µM (inactive) | > 100 µM (inactive) | –
C[Si](C)(C)OC1(C#N)C2C3CC4C2C(=O)C2C4C3C21 (stereo not given) | > 100 µM (inactive) | > 100 µM (inactive) | > 100 µM (inactive) | – | > 100 µM (inactive) | > 100 µM (inactive) | > 100 µM (inactive) | > 100 µM (inactive) | > 100 µM (inactive) | > 100 µM (inactive) | > 100 µM (inactive) | > 100 µM (inactive) | > 100 µM (inactive) | > 100 µM (inactive) | > 100 µM (inactive) | –
CN(C)CC/C(=N\Nc1ccccc1)c1ccccc1 | 27.4 µM (inactive) | – | 43.7 µM (inactive) | 15.7 µM (inactive) | 6.85 µM (inactive) | > 10 µM (inactive) | 2 µM (inactive) | – | – | 15.3 µM (inactive) | 45 µM (inactive) | 9.16 µM (inactive) | 13.4 µM (inactive) | 17.7 µM (inactive) | 14.3 µM (inactive) | 11.1 µM (inactive)
CCN1N=CSC12C(=O)N(c1ccccc1)C(=O)N2c1ccccc1 (stereo not given) | > 100 µM (inactive) | > 100 µM (inactive) | – | > 100 µM (inactive) | > 100 µM (inactive) | > 100 µM (inactive) | > 100 µM (inactive) | > 100 µM (inactive) | > 100 µM (inactive) | > 100 µM (inactive) | > 100 µM (inactive) | – | > 100 µM (inactive) | > 100 µM (inactive) | > 100 µM (inactive) | > 100 µM (inactive)
CC(C)(C)C1CCC(=O)C(C(O)CC2CC(=O)N(c3ccccc3)C(=O)C2)C1 (stereo not given) | 80.2 µM (inactive) | > 100 µM (inactive) | 73.1 µM (inactive) | > 100 µM (inactive) | > 100 µM (inactive) | > 100 µM (inactive) | > 100 µM (inactive) | > 100 µM (inactive) | > 100 µM (inactive) | > 100 µM (inactive) | > 100 µM (inactive) | – | > 100 µM (inactive) | – | > 100 µM (inactive) | > 100 µM (inactive)
COc1ccc(S(=O)(=O)N(CC(=O)O)c2ccccc2)cc1 | > 100 µM (inactive) | > 100 µM (inactive) | > 100 µM (inactive) | > 100 µM (inactive) | > 100 µM (inactive) | > 100 µM (inactive) | > 100 µM (inactive) | > 100 µM (inactive) | – | > 100 µM (inactive) | > 100 µM (inactive) | > 100 µM (inactive) | – | > 100 µM (inactive) | > 100 µM (inactive) | > 100 µM (inactive)
COc1ccc(C2Cc3cc(OC)c(OC)c(OC)c3C2=O)cc1 (stereo not given) | > 100 µM (inactive) | > 100 µM (inactive) | > 100 µM (inactive) | > 100 µM (inactive) | 41.8 µM (inactive) | > 100 µM (inactive) | > 100 µM (inactive) | > 100 µM (inactive) | > 100 µM (inactive) | > 100 µM (inactive) | > 100 µM (inactive) | > 100 µM (inactive) | > 100 µM (inactive) | 75.3 µM (inactive) | > 100 µM (inactive) | –
